Results as given in PMC6911621 (Cancer research, 2019).
Each block holds one molecule with its values, some of them ahead of it. Ends that are not written are not given here. Peptide text beside a SMILES is read from it. * marks the point of attachment. Biotin = O=C1N[C@H]2[C@H](CS[C@H]2CCCCC(=O)*)N1; Cbz = O=C(OCc1ccccc1)*; Ahx = NCCCCCC(=O)O; CH2F = FC*

Experiments:
tumor cells [1] = assay: Tumor cell death with pan-caspase inhibitor; format: cell-based; settings: plus cell-permeable MFF peptide #8–11, Supplementary Fig. S4D
tumor cells [2] = assay: HMGB1 release; format: cell-based; settings: Supplementary Fig. S4F and G
[3] = target: endogenous voltage-dependent anion channel-1 (VDAC1) (human (endogenous in PC3)) (UniProt P21796)
Sequence of endogenous voltage-dependent anion channel-1 (VDAC1) (human (endogenous in PC3)) (P21796 whole entry): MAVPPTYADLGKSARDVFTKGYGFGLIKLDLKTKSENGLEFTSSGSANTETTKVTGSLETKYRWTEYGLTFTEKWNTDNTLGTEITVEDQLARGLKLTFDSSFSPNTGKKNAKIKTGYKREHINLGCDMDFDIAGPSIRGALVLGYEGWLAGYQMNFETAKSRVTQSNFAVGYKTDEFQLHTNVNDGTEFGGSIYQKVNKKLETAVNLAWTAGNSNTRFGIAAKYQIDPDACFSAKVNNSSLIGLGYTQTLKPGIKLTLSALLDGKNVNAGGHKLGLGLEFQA

Molecule: COC(=O)C[C@H](NC(=O)[C@H](C)NC(=O)[C@@H](NC(=O)OCc1ccccc1)C(C)C)C(=O)CF [Z-VAD-fmk] (Cbz-Val-Ala-Asp(OMe)-CH2F)
reversal of cell death induced by cell-permeable MFF peptide #8–11 (tumor cells [1]): did not significantly reduce tumor cell death

Molecule: MFF-DD mutant peptide #8–11: MFF peptide #8–11 containing the double mutation Arg225Asp/Arg236Asp (DD) ({Biotin-Ahx}-RQIKIWFQNRRMKSADGILSLIQSSTDRAYQQIL)
HMGB1 release (tumor cells [2]): did not cause HMGB1 release

other [3]: 10 µM
B1: cell-permeable MFF peptide #8-11 (peptide)
peptide: {Biotin-Ahx}-RQIKIWFQNRRMKSARGILSLIQSSTRRAYQQIL
